From patent US20050215548A1 (Cyclacel Limited, priority 2002, published 2005)
Read-outs that look alike come from different tables or passages of the source. Marks after values point to notes of the source that are not given here. Non-standard residues stand in square brackets, D forms with d. Residues, ends and D or L forms follow the SMILES beside them. Trp(6-Cl) = N[C@@H](Cc1c[nH]c2cc(Cl)ccc12)C(=O)O; Pmp = N[C@@H](Cc1ccc(CP(=O)(O)O)cc1)C(=O)O; Ac3c = NC1(C(=O)O)CC1; Aib = CC(C)(N)C(=O)O

Assays:
HDM2 = biological target: T1, HDM2 (Homo sapiens, UniProt Q00987); test: Fluorescence polarisation competitive HDM2 binding assay
T1 construct: Recombinant HDM2 (1.5 μg per well) in TBS-BSA buffer
Description: This was carried out using a 96-well microtiter plate (Costar) format. Recombinant HDM2 (1.5 μg per well) in TBS-BSA buffer (50 mM Tris pH 7.4, 150 mM NaCl, and 0.1% BSA) was incubated for 5 min at room temperature in the presence of serially diluted test compound (in TBS-BSA buffer with a final concentration of 5% DMSO). Fluorescently labelled p53-derived peptide (fluorescein-[…]NH2, 0.2 μM) was added to each well and the plate was incubated at room temperature for 45 min. The fluorescence polarisation (excitation 485 nm, emission 520 nm) of the peptide was measured. IC50 values were calculated from dose-response curves.
(§1) The fluorescence polarisation competitive HDM2 binding assay described in Example 3 was used. Furthermore, the anti-proliferative potency of the compounds against three human tumour cell lines with different genetic make-up was also determined. […] The cell lines used were as follows: AGS, gastric adenocarcinoma, wild-type p53; H1299, large cell lung carcinoma, p53 null, low HDM2; SJSA-1, primitive multipotential bone sarcoma, wild-type p53, overexpressed HDM2.

p53 = p53 reporter gene assay (U2OS-derived luciferase reporter cell line); conditions: for Fold induction of luciferase activity: compared to basal luciferase activity, 16-h time point, at concentration of maximal induction; for Concentration (test compound concentration at which the p53 induction was maximal): p53 reporter, U2OS-derived cell line
Description: A dual assay assessing both cell viability and p53 response was employed. A U2OS-derived cell line stably transfected with a p53 response element and a luciferase reporter gene was created. […] After seeding of cells into 96-well tissue culture plates, treatment with test compounds, and incubation for the desired duration, the cell proliferation reagent WST-1 (Roche Molecular Biochemicals) was used to determine cell viability. The Bright-Glo™ Luciferase Assay System (Promega) was used to measure luciferase activity. The data from the cell viability assay was used to normalise data from the luciferase assay.

H1299 = test: 72-h MTT cytotoxicity assay, H1299; format: cell-based; conditions: Homo sapiens, NCI-H1299; 72-h MTT; Table 1; read-out: IC50 Anti-proliferative effect on cell line H 1299
Description: as §1
(§2) Representative bisarylsulfonamide compounds were tested on a panel of transformed and non-transformed human cell lines, using a standard 72-h MTT cytotoxicity assay [Haselsberger K et al, ibid].

AGS = test: 72-h MTT cytotoxicity assay, AGS; format: cell-based; conditions: Homo sapiens, 72-h MTT, Table 1, read-out: IC50 Anti-proliferative effect on cell line AGS
Description: as §1, §2

SJSA-1 = test: 72-h MTT cytotoxicity assay, SJSA-1; format: cell-based; conditions: Homo sapiens, SJSA-1; 72-h MTT; Table 1; read-out: IC50 Anti-proliferative effect on cell line SJSA-1
Description: as §1, §2

[1] = fluorescence polarisation assay, Table 3, read-out: In vitro competitive HDM2 binding assay IC50
[2] = fluorescence polarisation format, Table 1, read-out: IC50 In vitro competitive HDM2 binding assay

T1 sequence (Q00987 whole entry): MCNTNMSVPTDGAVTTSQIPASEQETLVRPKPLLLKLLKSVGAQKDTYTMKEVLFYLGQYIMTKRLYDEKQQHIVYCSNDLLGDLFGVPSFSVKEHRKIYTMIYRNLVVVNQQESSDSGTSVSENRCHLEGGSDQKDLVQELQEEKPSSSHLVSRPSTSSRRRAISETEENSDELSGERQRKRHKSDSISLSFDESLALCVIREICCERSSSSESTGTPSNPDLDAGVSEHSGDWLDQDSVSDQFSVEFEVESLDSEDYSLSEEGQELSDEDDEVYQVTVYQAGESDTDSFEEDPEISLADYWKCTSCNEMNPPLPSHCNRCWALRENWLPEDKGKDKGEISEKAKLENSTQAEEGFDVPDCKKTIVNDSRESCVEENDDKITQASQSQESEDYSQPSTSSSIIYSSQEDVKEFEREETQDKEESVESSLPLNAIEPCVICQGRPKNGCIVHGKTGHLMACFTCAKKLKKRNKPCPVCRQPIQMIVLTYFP

SMILES | IC50 (HDM2; [2]) | further results
O=S(=O)(Nc1ccc(F)cc1)c1cc(Br)c(Cl)s1 [Compound 4, 4-Bromo-5-chlorothiophene-2-sulfonic acid (4-fluorophenyl)amide] | 378 µM | IC50 (HDM2; [1]): 378 µM; Fold induction of luciferase activity (p53): <2 fold; Concentration (test compound concentration at which the p53 induction was maximal) (p53): 100^e μM
O=[N+]([O-])c1cc(S(=O)(=O)Nc2ccc(C(F)(F)F)cc2)ccc1Cl [Compound 35, 4-Chloro-3-nitro-N-(4-trifluoromethylphenyl)benzenesulfonamide] | 192 ± 8 µM | IC50 (H1299): 9.3 ± 1.7 µM; IC50 (AGS): 13 ± 3.3 µM; IC50 (SJSA-1): 26.5 ± 1.6 µM
CC(=O)Sc1sc(S(=O)(=O)Nc2ccc(Cl)cc2)cc1[N+](=O)[O-] [Compound 72, Thioacetic acid S-[5-(4-chloro-phenylsulfamoyl)-3-nitro-thiophen-2-yl] ester] | 16.2 µM | IC50 (AGS): 61 µM
Cc1sc(S(=O)(=O)Nc2ccc(Cl)cc2)cc1[N+](=O)[O-] [Compound 73, 5-Methyl-4-nitro-thiophene-2-sulfonic acid (4-chloro-phenyl)-amide] | > 167 µM | IC50 (H1299): 66 µM; IC50 (AGS): 53 µM
CC(=O)N1CCN(c2cc(S(=O)(=O)Nc3cc(C(F)(F)F)cc(C(F)(F)F)c3)ccc2[N+](=O)[O-])CC1 [Compound 106, 3-(4-Acetyl-piperazin-1-yl)-N-(3,5-bis-trifluoromethyl-phenyl)-4-nitro-benzenesulfonamide] | 241 ± 158 µM | –
O=S(=O)(NCc1ccc(Cl)cc1)c1cc(Cl)c(O)c(Cl)c1 [Compound 109, 3,5-Dichloro-N-(4-chloro-benzyl)-4-hydroxy-benzenesulfonamide] | 375 ± 41 µM | –
O=S(=O)(NCc1ccc(C(F)(F)F)cc1)c1cc(Cl)c(O)c(Cl)c1 [Compound 110, 3,5-Dichloro-4-hydroxy-N-(4-trifluoromethyl-benzyl)-benzenesulfonamide] | 242 µM | –
O=S(=O)(Nc1cc(Cl)cc(Cl)c1)c1cc(Br)c(Cl)s1 [Compound 115, 4-Bromo-5-chloro-thiophene-2-sulfonic acid (3,5-dichloro-phenyl)-amide] | 431 µM | –
O=S(=O)(Nc1ccc(C(F)(F)F)cc1)c1ccc(Br)s1 [Compound 116, 5-Bromo-thiophene-2-sulfonic acid (4-trifluoromethyl-phenyl)-amide] | 152 µM | –
O=S(=O)(Nc1ccc(Cl)cc1Cl)c1ccc(S(=O)(=O)c2ccccc2)s1 [Compound 118, 5-Benzenesulfonyl-thiophene-2-sulfonic acid (2,4-dichloro-phenyl)-amide] | 305 µM | –
Cc1c(S(=O)(=O)Nc2cc(C(F)(F)F)cc(C(F)(F)F)c2)sc2ccc(Cl)cc12 [Compound 119, 5-Chloro-3-methyl-benzo[b]thiophene-2-sulfonic acid (3,5-bis-trifluoromethyl-phenyl)-amide] | 106 ± 13 µM | –
O=S(=O)(Nc1cc(C(F)(F)F)cc(C(F)(F)F)c1)c1cc2ccccc2s1 [Compound 120, Benzo[b]thiophene-2-sulfonic acid (3,5-bis-trifluoromethyl-phenyl)-amide] | 193 ± 12 µM | –
O=S(=O)(Nc1cc(C(F)(F)F)cc(C(F)(F)F)c1)c1ccc2nsnc2c1 [Compound 122, Benzo[1,2,5]thiadiazole-5-sulfonic acid (3,5-bis-trifluoromethyl-phenyl)-amide] | 165 ± 8 µM | –
O=S(=O)(Nc1ccc(C(F)(F)F)cc1)c1ccc2nsnc2c1 [Compound 123, Benzo[1,2,5]thiadiazole-5-sulfonic acid (4-trifluoromethyl-phenyl)-amide] | 329 ± 42 µM | –
O=S(=O)(Nc1cc(C(F)(F)F)cc(C(F)(F)F)c1)c1ccc(-c2ccccn2)s1 [Compound 124, 5-Pyridin-2-yl-thiophene-2-sulfonic acid (3,5-bis-trifluoromethyl-phenyl)-amide] | 265 ± 64 µM | –
O=S(=O)(Nc1ccc(Cl)cc1)c1cc(Br)c(Br)s1 [Compound 125, 4,5-Dibromo-thiophene-2-sulfonic acid (4-chloro-phenyl)-amide] | 198 ± 17 µM | –
O=S(=O)(Nc1ccc(C(F)(F)F)cc1)c1cc(Br)c(Br)s1 [Compound 126, 4,5-Dibromo-thiophene-2-sulfonic acid (4-trifluoromethyl-phenyl)-amide] | 163 ± 27 µM | –
O=S(=O)(NCc1ccc(F)cc1)c1cc(Cl)c(O)c(Cl)c1 [Compound 127, 3,5-Dichloro-N-(4-fluoro-benzyl)-4-hydroxy-benzenesulfonamide] | 325 ± 24 µM | –
O=S(=O)(Nc1cc(C(F)(F)F)cc(C(F)(F)F)c1)c1c(Cl)cccc1Cl [Compound 128, N-(3,5-Bis-trifluoromethyl-phenyl)-2,6-dichloro-benzenesulfonamide] | 134 ± 28 µM | IC50 (AGS): 53 µM
O=[N+]([O-])c1cc(S(=O)(=O)Nc2ccc(Cl)cc2)sc1N1CCCC(O)C1 (stereo not shown) [Compound 130, 5-(3-Hydroxy-piperidin-1-yl)-4-nitro-thiophene-2-sulfonic acid (4-chloro-phenyl)-amide] | 64 ± 1 µM | –
O=[N+]([O-])c1ccc(NS(=O)(=O)c2cc([N+](=O)[O-])c(Cl)s2)cc1 [Compound 131, 5-Chloro-4-nitro-thiophene-2-sulfonic acid (4-nitro-phenyl)-amide] | 41 ± 4 µM | –
CSCC[C@H](NC(=O)[C@@H](N)Cc1ccccc1)C(=O)NC(C)(C)C(=O)N[C@@H](Cc1ccc(CP(=O)(O)O)cc1)C(=O)N[C@@H](Cc1c[nH]c2cc(Cl)ccc12)C(=O)N[C@@H](CCC(=O)O)C(=O)NC1(C(=O)N[C@@H](CC(C)C)C(N)=O)CC1 [Control, H-Phe-Met-Aib-Pmp-(6-Cl-Trp)-Glu-Ac3c-Leu-NH2, reference compound] (H-FM[Aib][Pmp][Trp(6-Cl)]E[Ac3c]L-NH2) | – | IC50 (HDM2; In vitro competitive HDM2 binding assay IC50, fluorescence polarisation assay, Table 3): 0.19 µM; Fold induction of luciferase activity (p53): 4 fold; Concentration (test compound concentration at which the p53 induction was maximal) (p53): 150 to 200 µM

More lines, in order of falling IC50 (HDM2; [2]), values ahead:

IC50 (HDM2; [2]) | SMILES | further results
451 ± 118 µM | O=C(O)c1cccc(S(=O)(=O)Nc2cc(C(F)(F)F)cc(C(F)(F)F)c2)c1 [Compound 108, 3-(3,5-Bis-trifluoromethyl-phenylsulfamoyl)-benzoic acid] | –
448 µM | O=S(=O)(NCCc1c[nH]c2ccccc12)c1cc(Cl)c(O)c(Cl)c1 [Compound 111, 3,5-Dichloro-4-hydroxy-N-[2-(1H-indol-3-yl)-ethyl]-benzenesulfonamide] | –
401 ± 46 µM | O=[N+]([O-])c1ccccc1S(=O)(=O)Nc1cc(C(F)(F)F)cc(C(F)(F)F)c1 [Compound 107, N-(3,5-Bis-trifluoromethyl-phenyl)-2-nitro-benzenesulfonamide] | –
314 ± 29 µM | O=S(=O)(Nc1ccc(Cl)cc1)c1ccc2nsnc2c1 [Compound 121, Benzo[1,2,5]thiadiazole-5-sulfonic acid (4-chloro-phenyl)-amide] | –
293 µM | O=S(=O)(Nc1cc(C(F)(F)F)cc(C(F)(F)F)c1)c1cc(Br)c(Cl)s1 [Compound 114, 4-Bromo-5-chloro-thiophene-2-sulfonic acid (3,5-bis-trifluoromethyl-phenyl)-amide] | –
278 ± 19 µM | COc1ccc(NS(=O)(=O)c2cc([N+](=O)[O-])c(Cl)s2)c(C)c1 [Compound 129, 5-Chloro-4-nitro-thiophene-2-sulfonic acid (4-methoxy-2-methyl-phenyl)-amide] | IC50 (HDM2; [1]): 278 ± 19 µM; Fold induction of luciferase activity (p53): 5 fold; Concentration (test compound concentration at which the p53 induction was maximal) (p53): 100 µM
246 µM | O=S(=O)(Nc1cc(Cl)cc(Cl)c1)c1ccc(-c2ncco2)cc1 [Compound 113, N-(3,5-Dichloro-phenyl)-4-oxazol-2-yl-benzenesulfonamide] | –
194 µM | O=S(=O)(Nc1cc(Cl)cc(Cl)c1)c1cc(Br)c(Br)s1 [Compound 112, 4,5-Dibromo-thiophene-2-sulfonic acid (3,5-dichloro-phenyl)-amide] | –
151 ± 26 µM | COc1ccc(S(=O)(=O)Nc2cc(C(F)(F)F)cc(C(F)(F)F)c2)cc1Cl [Compound 104, N-(3,5-Bis-trifluoromethyl-phenyl)-3-chloro-4-methoxy-benzene-sulfonamide] | IC50 (AGS): 25 µM
147 µM | O=S(=O)(Nc1cc(C(F)(F)F)cc(C(F)(F)F)c1)c1ccc(S(=O)(=O)c2ccccc2)s1 [Compound 117, 5-Benzenesulfonyl-thiophene-2-sulfonic acid (3,5-bis-trifluoromethyl-phenyl)-amide] | –
65 ± 5 µM | O=S(=O)(Nc1ccc(C(F)(F)F)cc1)c1cc(S(=O)(=O)Nc2ccc(C(F)(F)F)cc2)c(Cl)s1 [Compound 33, 5-Chlorothiophene-2,4-disulfonic acid bis-[(4-trifluoro-methyl-phenyl)-amide]] | IC50 (H1299): 69 ± 1 µM; IC50 (AGS): 68 ± 1 µM; IC50 (SJSA-1): > 100 µM
